Laboratory results: the OligoGym collection
Values joined by “and” are separate entries in the source; they are usually repeats but may differ in a detail not shown here. Equal values may be shown once. HELM strings list units from the 5' end as sugar, base in round brackets, then linkage (d deoxyribose, r ribose, m 2'-O-methyl, p phosphodiester). Strings are as the collection lists them, not checked against the first reports. ss, as = sense and antisense strand; [lna] = locked nucleic acid (LNA); [una] = unlocked nucleic acid; [s4r] = 4'-thioribose; [fl2r] = 2'-fluoro

Settings: siRNA
Also: test system not given here.

RNA1{r(A)p.m(C)p.m(C)p.m(U)p.m(U)p.m(U)p.m(C)p.m(C)p.r(A)p.m(C)p.m(U)p.m(U)p.m(C)p.m(U)p.r(A)p.r(A)p.r(G)p.m(C)p.m(C)p.r(T)p.r(T)}|RNA2{r(G)p.r(G)p.r(C)p.r(U)p.r(U)p.r(A)p.r(G)p.r(A)p.r(A)p.r(G)p.r(U)p.r(G)p.r(G)p.r(A)p.r(A)p.r(A)p.r(G)p.r(G)p.r(U)p.r(T)p.r(T)}$$$RNA1{StrandType:ss}|RNA2{StrandType:as}$
target mRNA knockdown: 75%

RNA1{r(G)p.r(C)p.[fl2r](U)p.r(A)p.r(C)p.r(C)p.r(G)p.r(C)p.r(A)p.r(A)p.r(C)p.r(C)p.r(A)p.r(C)p.r(G)p.r(A)p.r(G)p.r(C)p.r(U)p.r(T)p.r(T)}|RNA2{r(A)p.r(G)p.r(C)p.r(U)p.r(C)p.r(G)p.r(U)p.r(G)p.r(G)p.r(U)p.r(U)p.r(G)p.r(C)p.r(G)p.r(G)p.[fl2r](U)p.r(A)p.r(G)p.r(C)p.r(T)p.r(T)}$$$RNA1{StrandType:ss}|RNA2{StrandType:as}$
target mRNA knockdown: 45%

RNA1{r(A)p.r(G)p.r(C)p.r(C)p.r(U)p.r(C)p.r(C)p.r(A)p.r(A)p.r(A)p.r(C)p.r(U)p.r(C)p.r(C)p.r(U)p.r(A)p.r(G)p.r(C)p.r(U)p.r(T)p.r(T)}|RNA2{r(A)p.r(G)p.r(C)p.m(U)p.r(A)p.r(G)p.r(G)p.r(A)p.r(G)p.r(U)p.r(U)p.m(U)p.r(G)p.r(G)p.r(A)p.r(G)p.r(G)p.r(C)p.r(U)p.r(T)p.r(T)}$$$RNA1{StrandType:ss}|RNA2{StrandType:as}$
target mRNA knockdown: 70%

RNA1{r(A)p.r(A)p.r(A)p.r(G)p.r(C)p.r(G)p.r(G)p.r(U)p.r(G)p.r(G)p.r(A)p.r(U)p.r(C)p.r(A)p.r(G)p.r(C)p.r(U)p.r(C)p.r(U)p.r(T)p.r(T)}|RNA2{r(A)p.r(G)p.r(A)p.r(G)p.r(C)p.m(U)p.r(G)p.r(A)p.r(U)p.r(C)p.m(C)p.r(A)p.r(C)p.r(C)p.r(G)p.r(C)p.r(U)p.r(U)p.r(U)p.r(T)p.r(T)}$$$RNA1{StrandType:ss}|RNA2{StrandType:as}$
target mRNA knockdown: 67%

RNA1{r(C)p.[fl2r](U)p.r(A)p.r(A)p.r(G)p.r(C)p.r(C)p.r(U)p.r(G)p.r(U)p.r(U)p.r(U)p.r(C)p.r(U)p.r(U)p.r(C)p.r(C)p.r(U)p.r(C)p.r(T)p.r(T)}|RNA2{r(G)p.r(A)p.r(G)p.r(G)p.r(A)p.r(A)p.r(G)p.r(A)p.r(A)p.r(A)p.r(C)p.r(A)p.r(G)p.r(G)p.r(C)p.r(U)p.r(U)p.r(A)p.r(G)p.r(T)p.r(T)}$$$RNA1{StrandType:ss}|RNA2{StrandType:as}$
target mRNA knockdown: 82%

RNA1{r(U)p.m(U)p.r(A)p.m(C)p.r(A)p.r(A)p.r(A)p.m(G)p.m(G)p.r(A)p.r(U)p.r(C)p.r(U)p.r(C)p.r(C)p.r(U)p.r(C)p.r(C)p.r(C)p.r(T)p.r(T)}|RNA2{r(G)p.r(G)p.r(G)p.r(A)p.r(G)p.r(G)p.r(A)p.r(G)p.r(A)p.r(U)p.r(C)p.r(C)p.r(U)p.r(U)p.m(U)p.r(G)p.m(U)p.r(A)p.r(A)p.r(T)p.r(T)}$$$RNA1{StrandType:ss}|RNA2{StrandType:as}$
target mRNA knockdown: 72%

RNA1{r(G)p.r(A)p.r(C)p.r(G)p.r(U)p.r(A)p.r(A)p.r(A)p.r(C)p.r(G)p.r(G)p.r(C)p.r(C)p.r(A)p.r(C)p.r(A)p.r(A)p.r(G)p.r(U)p.[lna](T)p.[lna](C)}|RNA2{r(A)p.r(C)p.r(U)p.r(U)p.r(G)p.r(U)p.r(G)p.r(G)p.r(C)p.r(C)p.r(G)p.r(U)p.r(U)p.r(U)p.r(A)p.r(C)p.r(G)p.r(U)p.r(C)p.r(G)p.r(C)}$$$RNA1{StrandType:ss}|RNA2{StrandType:as}$
target mRNA knockdown: 87.4%

RNA1{r(G)p.m(C)p.r(A)p.r(G)p.r(A)p.r(G)p.r(A)p.r(A)p.m(U)p.m(C)p.m(U)p.r(A)p.m(C)p.m(C)p.m(U)p.m(U)p.m(U)p.m(C)p.m(C)p.r(T)p.r(T)}|RNA2{r(G)p.r(G)p.r(A)p.r(A)p.r(A)p.r(G)p.r(G)p.m(U)p.r(A)p.r(G)p.r(A)p.m(U)p.m(U)p.m(C)p.m(U)p.m(C)p.m(U)p.r(G)p.m(C)p.r(T)p.r(T)}$$$RNA1{StrandType:ss}|RNA2{StrandType:as}$
target mRNA knockdown: 13%

RNA1{r(C)p.r(G)p.r(U)p.r(A)p.r(C)p.r(G)p.r(C)p.r(G)p.r(G)p.r(A)p.r(A)p.r(U)p.r(A)p.r(C)p.r(U)p.r(U)p.r(C)p.r(G)p.r(A)p.r(T)p.r(T)}|RNA2{[s4r](U)p.[s4r](C)p.r(G)p.r(A)p.r(A)p.r(G)p.[s4r](U)p.r(A)p.[s4r](U)p.[s4r](U)p.[s4r](C)p.[s4r](C)p.r(G)p.[s4r](C)p.r(G)p.[s4r](U)p.r(A)p.[s4r](C)p.r(G)p.r(T)p.r(T)}$$$RNA1{StrandType:ss}|RNA2{StrandType:as}$
target mRNA knockdown: 27.5%

RNA1{r(G)p.r(U)p.r(A)p.r(U)p.r(G)p.r(A)p.r(C)p.r(C)p.r(G)p.r(A)p.r(C)p.r(U)p.r(A)p.r(C)p.r(G)p.r(C)p.r(G)p.r(U)p.r(A)p.r(T)p.r(T)}|RNA2{r(U)p.r(U)p.r(C)p.r(A)p.r(G)p.r(U)p.r(G)p.[una](U)p.r(G)p.r(A)p.r(U)p.r(G)p.r(A)p.r(C)p.r(A)p.r(C)p.r(U)p.r(U)p.r(G)p.r(T)p.r(T)}$$$RNA1{StrandType:ss}|RNA2{StrandType:as}$
target mRNA knockdown: 90%

RNA1{[s4r](C)p.r(G)p.r(U)p.r(A)p.[s4r](C)p.r(G)p.[s4r](C)p.r(G)p.r(G)p.r(A)p.r(A)p.r(U)p.r(A)p.[s4r](C)p.r(U)p.r(U)p.[s4r](C)p.r(G)p.r(A)p.r(T)p.r(T)}|RNA2{r(U)p.r(C)p.r(G)p.r(A)p.r(A)p.r(G)p.r(U)p.r(A)p.r(U)p.r(U)p.r(C)p.r(C)p.r(G)p.r(C)p.r(G)p.r(U)p.r(A)p.r(C)p.r(G)p.r(T)p.r(T)}$$$RNA1{StrandType:ss}|RNA2{StrandType:as}$
target mRNA knockdown: 93.6%

RNA1{r(G)p.r(C)p.m(U)p.r(G)p.r(A)p.r(G)p.r(G)p.r(A)p.r(A)p.r(A)p.r(G)p.r(G)p.m(G)p.r(A)p.m(C)p.r(A)p.r(U)p.r(C)p.r(U)p.r(T)p.r(T)}|RNA2{r(A)p.r(G)p.r(A)p.m(U)p.r(G)p.r(U)p.r(C)p.r(C)p.r(C)p.r(U)p.r(U)p.r(U)p.r(C)p.r(C)p.r(U)p.m(C)p.r(A)p.r(G)p.r(C)p.r(T)p.r(T)}$$$RNA1{StrandType:ss}|RNA2{StrandType:as}$
target mRNA knockdown: 76%

RNA1{r(G)p.r(G)p.r(U)p.r(C)p.r(A)p.r(U)p.r(C)p.r(C)p.r(A)p.r(U)p.r(G)p.r(A)p.r(C)p.r(A)p.r(A)p.r(C)p.r(U)p.r(U)p.r(U)p.d(T)p.d(T)}|RNA2{r(A)p.r(A)p.r(A)p.r(G)p.r(U)p.r(U)p.r(G)p.r(U)p.r(C)p.r(A)p.r(U)p.r(G)p.r(G)p.r(A)p.r(U)p.r(G)p.r(A)p.r(C)p.r(C)p.d(T)p.d(T)}$$$RNA1{StrandType:ss}|RNA2{StrandType:as}$
target mRNA knockdown: 80% and 94%

RNA1{r(A)p.r(C)p.r(C)p.r(U)p.m(U)p.r(A)p.r(A)p.r(G)p.r(G)p.r(A)p.r(C)p.m(C)p.r(A)p.r(C)p.r(C)p.r(G)p.r(G)p.r(A)p.r(U)p.r(T)p.r(T)}|RNA2{r(A)p.r(U)p.r(C)p.r(C)p.r(G)p.r(G)p.m(U)p.r(G)p.r(G)p.r(U)p.r(C)p.r(C)p.r(U)p.m(U)p.r(A)p.r(A)p.r(G)p.r(G)p.r(U)p.r(T)p.r(T)}$$$RNA1{StrandType:ss}|RNA2{StrandType:as}$
target mRNA knockdown: 72%

RNA1{r(G)p.r(G)p.r(A)p.r(C)p.r(A)p.r(U)p.r(U)p.r(C)p.r(A)p.r(G)p.r(A)p.r(A)p.r(C)p.r(A)p.r(A)p.r(G)p.r(A)p.r(A)p.r(A)p.[una](U)p.[una](U)}|RNA2{r(U)p.r(U)p.[una](U)p.r(C)p.r(U)p.r(U)p.r(G)p.r(U)p.r(U)p.r(C)p.r(U)p.r(G)p.r(A)p.r(A)p.r(U)p.r(G)p.r(U)p.r(C)p.r(C)p.[una](U)p.[una](U)}$$$RNA1{StrandType:ss}|RNA2{StrandType:as}$
target mRNA knockdown: 0%

RNA1{m(U)p.r(A)p.m(G)p.r(C)p.m(C)p.r(A)p.m(G)p.r(A)p.m(G)p.r(C)p.m(C)p.r(A)p.m(A)p.r(A)p.r(G)p.m(A)p.r(A)p.r(G)p.r(C)p.r(T)p.r(T)}|RNA2{r(G)p.r(C)p.m(U)p.m(U)p.r(C)p.m(U)p.m(U)p.m(U)p.r(G)p.r(G)p.r(C)p.m(U)p.r(C)p.m(U)p.r(G)p.r(G)p.r(C)p.m(U)p.r(A)p.r(T)p.r(T)}$$$RNA1{StrandType:ss}|RNA2{StrandType:as}$
target mRNA knockdown: 75%

RNA1{r(C)p.r(C)p.r(G)p.r(A)p.r(A)p.r(G)p.r(A)p.r(C)p.r(G)p.m(A)p.m(A)p.r(G)p.r(C)p.m(U)p.r(A)p.m(U)p.r(G)p.r(A)p.r(A)p.r(T)p.r(T)}|RNA2{r(U)p.r(U)p.m(C)p.r(A)p.m(U)p.r(A)p.r(G)p.r(C)p.r(U)p.r(U)p.r(C)p.r(G)p.r(U)p.r(C)p.r(U)p.r(U)p.r(C)p.r(G)p.r(G)p.r(T)p.r(T)}$$$RNA1{StrandType:ss}|RNA2{StrandType:as}$
target mRNA knockdown: 69%

RNA1{m(U)p.r(A)p.m(A)p.r(A)p.m(C)p.r(U)p.m(U)p.r(U)p.m(G)p.r(G)p.m(G)p.r(G)p.m(A)p.r(A)p.m(G)p.r(G)p.m(G)p.r(A)p.m(G)p.r(T)p.r(T)}|RNA2{r(C)p.r(U)p.r(C)p.r(C)p.r(C)p.r(U)p.r(U)p.r(C)p.r(C)p.r(C)p.r(C)p.r(A)p.r(A)p.r(A)p.r(G)p.r(U)p.r(U)p.r(U)p.r(A)p.r(T)p.r(T)}$$$RNA1{StrandType:ss}|RNA2{StrandType:as}$
target mRNA knockdown: 34%

RNA1{r(A)p.[fl2r](C)p.r(A)p.[fl2r](U)p.r(A)p.[fl2r](G)p.r(A)p.r(G)p.r(G)p.r(A)p.r(A)p.r(G)p.r(A)p.r(C)p.r(G)p.r(C)p.r(G)p.r(G)p.r(A)p.r(T)p.r(T)}|RNA2{r(U)p.r(C)p.r(C)p.r(G)p.r(C)p.r(G)p.r(U)p.r(C)p.r(U)p.r(U)p.r(C)p.r(C)p.r(U)p.r(C)p.[fl2r](U)p.r(A)p.[fl2r](U)p.r(G)p.r(U)p.r(T)p.r(T)}$$$RNA1{StrandType:ss}|RNA2{StrandType:as}$
target mRNA knockdown: 86%

RNA1{r(C)p.r(G)p.r(U)p.r(A)p.r(C)p.r(G)p.r(C)p.r(G)p.r(G)p.r(A)p.r(A)p.r(U)p.r(A)p.r(C)p.r(U)p.r(U)p.r(C)p.r(G)p.r(A)p.r(T)p.r(T)}|RNA2{[s4r](U)p.[s4r](C)p.[s4r](G)p.[s4r](A)p.[s4r](A)p.[s4r](G)p.r(U)p.r(A)p.r(U)p.r(U)p.r(C)p.r(C)p.r(G)p.r(C)p.r(G)p.r(U)p.r(A)p.r(C)p.r(G)p.r(T)p.r(T)}$$$RNA1{StrandType:ss}|RNA2{StrandType:as}$
target mRNA knockdown: 70.9%
